Results on 30 compounds are retold here after patent US9034882B2, “Inhibitors of human immunodeficiency virus replication” (priority 2012, dated 2015).

The subject of the experiment is recombinant NL-Rluc virus. The experiment in a line: Inhibition of HIV replication (NL-RLuc luciferase reporter virus in MT-2 cells). Format: cell-based.
Setting [1] is: Human immunodeficiency virus 1, MT2, 120 h, read-out: Activity.
Where [2] appears, read: Human immunodeficiency virus 1, MT2, 120 h, read-out: EC50 μM.
Where [3] appears, read: read-out: Activity, MT-2 cells infected with NL-RLuc virus, 5 days of incubation, luciferase readout, serum condition not given.

Where two headings read alike, the source gives them in different places.

With `Cc1nc2cc(-c3cccc(-c4ccccc4F)c3)nn2c(N2CCC3(C)CC3C2)c1[C@H](OC(C)(C)C)C(=O)O` (stereo partly drawn) [Example 63, (2S)-2-(tert-Butoxy)-2-(2-(2′-fluoro-[1,1′-biphenyl]-3-yl)-5-methyl-7-(6-methyl-3-azabicyclo[4.1.0]heptan-3-yl)pyrazolo[1,5-a]pyrimidin-6-yl)acetic acid], under setting [1], the EC50 lay within 0.1 to 1 µM. On the same count and under the same terms, for `Cc1nc2nc(-c3ccccc3)nn2c(N2CCCC(C)(C)C2)c1C(OC(C)(C)C)C(=O)O` (stereo not shown) [Example 41, 2-(tert-Butoxy)-2-(7-(3,3-dimethylpiperidin-1-yl)-5-methyl-2-phenyl-[1,2,4]triazolo[1,5-a]pyrimidin-6-yl)acetic acid] the value was less than 0.1 µM; for `Cc1nc2nc(-c3ccccc3)nn2c(N2CC[C@H]3CCCC[C@H]3C2)c1C(OC(C)(C)C)C(=O)O` (stereo partly drawn) [Example 39, 2-(tert-Butoxy)-2-(5-methyl-7-((4aR,8aR)-octahydroisoquinolin-2(1H)-yl)-2-phenyl-[1,2,4]triazolo[1,5-a]pyrimidin-6-yl)acetic acid], 0.1 to 1 µM. As for `Cc1nc2cc(-c3cccc(OCc4ccccc4)c3)nn2c(N2CCC(C)(C)CC2)c1C(OC(C)(C)C)C(=O)O` (stereo not shown) [Example 32, 2-(2-(3-(benzyloxy)phenyl)-7-(4,4-dimethylpiperidin-1-yl)-5-methylpyrazolo[1,5-a]pyrimidin-6-yl)2-(tert-butoxy)acetic acid], the EC50 under setting [1] is less than 0.1 µM and the EC50 under setting [2] worked out at 0.06 µM. Regarding `Cc1nc2cc(-c3cccc(-c4cccc(F)c4)c3)nn2c(N2CCC(C)(C)CC2)c1[C@H](OC(C)(C)C)C(=O)O` [Example 55, (S)-2-(tert-Butoxy)-2-(7-(4,4-dimethylpiperidin-1-yl)-2-(3′-fluoro-[1,1′-biphenyl]-3-yl)-5-methylpyrazolo[1,5-a]pyrimidin-6-yl)acetic acid], under setting [1], the EC50 was in the range of 0.1 to 1 µM.

As to `Cc1nc2cc(-c3cccc(OCc4ccccc4)n3)nn2c(N2CCC(C)(C)CC2)c1[C@H](OC(C)(C)C)C(=O)O` [Example 69, (S)-2-(2-(6-(Benzyloxy)pyridin-2-yl)-7-(4,4-dimethylpiperidin-1-yl)-5-methylpyrazolo[1,5-a]pyrimidin-6-yl)-2-(tert-butoxy)acetic acid], the EC50 was 0.1 to 1 µM under setting [1] and 0.19 µM under setting [2]. For the compound `Cc1nc2cc(-c3ccc4c(c3)CCCC4)nn2c(N2CCC(C)(C)CC2)c1[C@H](OC(C)(C)C)C(=O)O` [Example 33, (S)-2-(tert-Butoxy)-2-(7-(4,4-dimethylpiperidin-1-yl)-5-methyl-2-(5,6,7,8-tetrahydronaphthalen-2-yl)pyrazolo[1,5-a]pyrimidin-6-yl)acetic acid], the EC50 under setting [1] was 0.1 to 1 µM.

As to `Cc1nc2cc(-c3cccc(-c4ccccc4)c3)nn2c(N2CCC3(C)CC3C2)c1[C@H](OC(C)(C)C)C(=O)O` (stereo partly drawn) [Example 62, (2S)-2-(2-([1,1′-Biphenyl]-3-yl)-5-methyl-7-(6-methyl-3-azabicyclo[4.1.0]heptan-3-yl)pyrazolo[1,5-a]pyrimidin-6-yl)-2-(tert-butoxy)acetic acid], the EC50 under setting [2] stood at 0.42 µM and the EC50 under setting [3] is 0.1 to 1 µM. For `Cc1nc2cc(-c3ccccc3)nn2c(N2CCC(F)(F)CC2)c1C(OC(C)(C)C)C(=O)O` (stereo not shown) [Example 21], the EC50 under setting [1] is greater than 1 µM.

Regarding `Cc1nc2cc(-c3ccccc3)nn2c(N2CCC(Br)CC2)c1C(OC(C)(C)C)C(=O)O` (stereo not shown) [Example 22], the EC50 under setting [1] was greater than 1 µM. On the same count and under the same terms, the same measure for `Cc1nc2cc(-c3ccccc3)nn2c(N2CCC(F)CC2)c1C(OC(C)(C)C)C(=O)O` (stereo not shown) [Example 12]: greater than 1 µM; for `Cc1nc2cc(-c3cccc(-c4cccc(F)c4)c3)nn2c(N2CCC3(CC2)CC3)c1[C@H](OC(C)(C)C)C(=O)O` [Example 53, (S)-2-(tert-Butoxy)-2-(2-(3′-fluoro-[1,1′-biphenyl]-3-yl)-5-methyl-7-(6-azaspiro[2.5]octan-6-yl)pyrazolo[1,5-a]pyrimidin-6-yl)acetic acid]: 0.1 to 1 µM; for `Cc1nc2cc(-c3cccc(-c4ccc5cnn(C)c5c4)c3)nn2c(N2CCC(C)(C)CC2)c1[C@H](OC(C)(C)C)C(=O)O` [Example 57, (S)-2-(tert-Butoxy)-2-(7-(4,4-dimethylpiperidin-1-yl)-5-methyl-2-(3-(1-methyl-1H-indazol-6-yl)phenyl)pyrazolo[1,5-a]pyrimidin-6-yl)acetic acid]: less than 0.1 µM. Same read-out and setting: for `Cc1nc2cc(-c3ccc4c(c3)CCCC4)nn2c(N2CCC(C)CC2)c1[C@H](OC(C)(C)C)C(=O)O` [Example 34, (S)-2-(tert-Butoxy)-2-(5-methyl-7-(4-methylpiperidin-1-yl)-2-(5,6,7,8-tetrahydronaphthalen-2-yl)pyrazolo[1,5-a]pyrimidin-6-yl)acetic acid] the value was 0.1 to 1 µM. On to `Cc1nc2cc(-c3ccccc3)nn2c(N2CCC3(CC2)CC3)c1[C@H](OC(C)(C)C)C(=O)O` [Example 30, (S)-2-(tert-butoxy)-2-(5-methyl-2-phenyl-7-(6-azaspiro[2.5]octan-6-yl)pyrazolo[1,5-a]pyrimidin-6-yl)acetic acid], for which the EC50 under setting [1] is 0.1 to 1 µM.

On to `Cc1nc2cc(-c3cccc(-c4ccccc4F)c3)nn2c(N2CCC3(C)CC3C2)c1[C@H](OC(C)(C)C)C(=O)O` (stereo partly drawn) [Example 64, (2S)-2-(tert-Butoxy)-2-(2-(2′-fluoro-[1,1′-biphenyl]-3-yl)-5-methyl-7-(6-methyl-3-azabicyclo[4.1.0]heptan-3-yl)pyrazolo[1,5-a]pyrimidin-6-yl)acetic acid], for which, under setting [3], the EC50 was 0.1 to 1 µM. With `Cc1nc2cc(-c3cccc(-c4ccccc4)c3)nn2c(N2CCC3(CC2)CC3)c1[C@H](OC(C)(C)C)C(=O)O` [Example 47, (S)-2-(2-([1,1′-Biphenyl]-3-yl)-5-methyl-7-(6-azaspiro[2.5]octan-6-yl)pyrazolo[1,5-a]pyrimidin-6-yl)-2-(tert-butoxy)acetic acid], the EC50 under setting [1] was 0.1 to 1 µM.

Consider `Cc1nc2cc(-c3ccccc3)nn2c(N2CCCC(F)C2)c1C(OC(C)(C)C)C(=O)O` (stereo not shown) [Example 18], for which the EC50 under setting [1] was greater than 1 µM. `Cc1nc2cc(-c3cccc(-c4ccccc4F)c3)nn2c(N2CCC3(CC2)CC3)c1[C@H](OC(C)(C)C)C(=O)O` [Example 51, (S)-2-(tert-Butoxy)-2-(2-(2′-fluoro-[1,1′-biphenyl]-3-yl)-5-methyl-7-(6-azaspiro[2.5]octan-6-yl)pyrazolo[1,5-a]pyrimidin-6-yl)acetic acid]: the EC50 under setting [1] was in the range of 0.1 to 1 µM. Consider `Cc1nc2nc(-c3ccccc3)nn2c(N2CCC(C)(C)CC2)c1C(OC(C)(C)C)C(=O)O` (stereo not shown) [Example 37, 2-tert-Butoxy-2-(7-(4,4-dimethylpiperidin-1-yl)-5-methyl-2-phenyl-[1,2,4]triazolo[1,5-a]pyrimidin-6-yl)acetic acid], for which the EC50 reads like this: under setting [1], 0.1 to 1 µM; under setting [2], 0.24 µM.

For `Cc1nc2cc(-c3ccccc3)nn2c(N2CCCCC2C)c1C(OC(C)(C)C)C(=O)O` (stereo not shown) [Example 19], under setting [1], the EC50 lay within 0.1 to 1 µM.

Turning to `Cc1nc2cc(-c3ccccc3)nn2c(N2CCC(C(F)(F)F)CC2)c1C(OC(C)(C)C)C(=O)O` (stereo not shown) [Example 23], the EC50 under setting [1] is greater than 1 µM. With `Cc1nc2cc(-c3cccc(-c4ccccc4)c3)nn2c(N2[C@@H]3CCC[C@H]2CC3)c1[C@H](OC(C)(C)C)C(=O)O` [Example 43, (S)-2-(2-([1,1′-Biphenyl]-3-yl)-7-((1R,5S)-8-azabicyclo[3.2.1]octan-8-yl)-5-methylpyrazolo[1,5-a]pyrimidin-6-yl)-2-(tert-butoxy)acetic acid], the EC50 runs as follows: under setting [1], 0.1 to 1 µM; under setting [2], 0.78 µM. For `Cc1nc2cc(-c3cccc(-c4ccccc4)c3)nn2c(N2C3CCC2CN(C)C3)c1[C@H](OC(C)(C)C)C(=O)O` [Example 50, (S)-2-(2-([1,1′-Biphenyl]-3-yl)-5-methyl-7-((1R,5S)-3-methyl-3,8-diazabicyclo[3.2.4]octan-8-yl)pyrazolo[1,5-a]pyrimidin-6-yl)-2-(tert-butoxy)acetic acid], in that order: greater than 1 µM and 3.23 µM. Turning to `Cc1nc2cc(-c3ccccc3)nn2c(N2CCCCCC2)c1C(OC(C)(C)C)C(=O)O` (stereo not shown) [Example 6, 2(7-(azepan-1-yl)-5-methyl-2-phenylpyrazolo[1,5a]pyrimidin-6-yl)-2-(tert-butoxy)-acetic acid], the EC50 under setting [1] was greater than 1 µM. The same measure, in the same setting: the same measure for `Cc1nc2cc(-c3ccccc3)nn2c(N2CCc3ccccc3C2)c1C(OC(C)(C)C)C(=O)O` (stereo not shown) [Example 3, 2-(tert-butoxy)-2-(7-(3,4-dijydroisoquinolin-2(1H)-yl)-5-methyl-2-phenylpyrazolo[1,5a]pyrimidin-6-yl)acetic acid]: greater than 1 µM. Still for that read-out and setting: for `Cc1nc2cc(-c3cccc(-c4ccccc4)c3)nn2c(N2CCOC(C)(C)C2)c1[C@H](OC(C)(C)C)C(=O)O` [Example 49, (S)-2-(2-([1,1′-Biphenyl]-3-yl)-7-(2,2-dimethylmorpholino)-5-methylpyrazolo[1,5-a]pyrimidin-6-yl)-2-(tert-butoxy)acetic acid] the value was 0.1 to 1 µM. Consider `Cc1nc2cc(-c3cccc(-c4ccccc4F)c3)nn2c(N2CCC(C)(C)CC2)c1[C@H](OC(C)(C)C)C(=O)O` [Example 52, (S)-2-(tert-Butoxy)-2-(7-(4,4-dimethylpiperidin-1-yl)-2-(2′-fluoro-[1,1′-biphenyl]-3-yl)-5-methylpyrazolo[1,5-a]pyrimidin-6-yl)acetic acid], for which the EC50 by setting is: under setting [1], less than 0.1 µM; under setting [2], 0.05 µM. Regarding `Cc1nc2cc(-c3ccccc3)nn2c(N2CCC(C)(C)C2)c1[C@H](OC(C)(C)C)C(=O)O` [Example 28, (S)-2-(tert-butoxy)-2-(7-(3,3-dimethylpyrrolidin-1-yl)-5-methyl-2-phenylpyrazolo[1,5-a]pyrimidin-6-yl)acetic acid], the EC50 under setting [1] lay in the range of 0.1 to 1 µM. Same read-out and setting: for `Cc1nc2cc(-c3cccc(-c4ccc(F)cc4)c3)nn2c(N2CCC(C)(C)CC2)c1[C@H](OC(C)(C)C)C(=O)O` [Example 56, (S)-2-(tert-Butoxy)-2-(7-(4,4-dimethylpiperidin-1-yl)-2-(4′-fluoro-[1,1′-biphenyl]-3-yl)-5-methylpyrazolo[1,5-a]pyrimidin-6-yl)acetic acid] the value was 0.1 to 1 µM.
